Here are results for 6 compounds from article PMC4359082 (Nature, 2014).

Series [1] is described as follows: Drug preparation and storage: stability of solutions. It is filed as physicochemical. Conditions: solutions prepared on the day of the experiment.
A further series addresses T1, MrgprB2 (Mus musculus, UniProt Q3KNA1).
T1 sequence (Q3KNA1 1-338): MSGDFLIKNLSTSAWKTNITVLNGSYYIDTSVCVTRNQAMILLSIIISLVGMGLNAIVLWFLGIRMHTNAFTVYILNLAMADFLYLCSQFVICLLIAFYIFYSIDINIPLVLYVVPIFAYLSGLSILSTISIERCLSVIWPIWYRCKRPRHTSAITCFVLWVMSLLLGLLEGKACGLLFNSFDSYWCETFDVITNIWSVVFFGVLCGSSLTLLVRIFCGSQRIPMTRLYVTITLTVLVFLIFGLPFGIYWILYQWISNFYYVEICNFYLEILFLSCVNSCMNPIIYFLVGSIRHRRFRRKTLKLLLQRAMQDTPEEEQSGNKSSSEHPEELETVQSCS
The series can be described thus: Calcium imaging in HEK293 cells expressing MrgprB2. It is filed as cell-based. Conditions: HEK293 cells heterologously expressing MrgprB2.

Series [2] has as its system mouse peritoneal mast cells. As to the kind of experiment: Mouse peritoneal mast cell histamine release assay. Type of series: cell-based. Conditions: 5 minutes, room temperature; HTRF histamine assay. A general note: TR-FRET usually uses a lanthanide donor and a delayed reading to cut background.

For the compound `COc1cc2c(cc1OC)[C@@H](Cc1cc(OC)c(OC)c(OC)c1)[N+](C)(CCCOC(=O)CC/C=C/CCC(=O)OCCC[N+]1(C)CCc3cc(OC)c(OC)cc3[C@H]1Cc1cc(OC)c(OC)c(OC)c1)CC2` (stereo partly shown) [mivacurium], the “stability of potency of drug solutions” value in series [1] is given as “susceptible to oxidation and/or freeze-thaw effects”.

On to `CCN(CC)CCCC(C)Nc1ccnc2cc(Cl)ccc12` (stereo not shown) [CQ, chloroquine], for which the “response of MrgprB2-HEK cells ([Ca2+]i)” value at MrgprB2 is “no response”.

Take icatibant: the “histamine release from WT peritoneal mast cells (MrgprB2MUT mast cells released substantially less)” value (shortened to “histamine release”) in series [2] was “induced histamine release”.

As for `COc1cc2c3cc1Oc1cc(ccc1O)C[C@@H]1c4c(cc(OC)c(O)c4Oc4ccc(cc4)C[C@@H]3N(C)CC2)CC[N+]1(C)C` [tubocurarine], the “stability of potency of drug solutions” value in series [1] is listed as “susceptible to oxidation and/or freeze-thaw effects”.

Regarding `COc1ccc(CC2c3cc(OC)c(OC)cc3CC[N+]2(C)CCC(=O)OCCCCCOC(=O)CC[N+]2(C)CCc3cc(OC)c(OC)cc3C2Cc2ccc(OC)c(OC)c2)cc1OC` (stereo not shown) [Atracurium, atracurium], the “stability of potency of drug solutions” value in series [1] is “susceptible to oxidation and/or freeze-thaw effects”. The “histamine release” value in series [2] is listed as “induced histamine release”.

For the compound `O=C(O)c1cn(C2CC2)c2cc(N3CCNCC3)c(F)cc2c1=O` [Ciprofloxacin, ciprofloxacin], the “histamine release” value in series [2] is “induced histamine release”.
